According to US9315489B2, “Compounds and compositions for inhibiting the activity of ABL1, ABL2 and BCR-ABL1” (Novartis AG, priority 2012, dated 2016):
Like-named read-outs stand apart in the source and are kept apart here.

Columns and labels:
Ba/F3-BCR-ABL1-WT cells = experiment: Ba/F3-BCR-ABL1-WT cellular proliferation assay; format: cell-based, murine; settings: Mus musculus, read-out: Ba/F3-BCR-ABL1-WT IC50
[1] = Compound concentration in mouse brain and plasma; format: in vivo; settings: 5 minutes after a single intravenous injection of 1 mg/kg in mice; for concentration at 5 min / Kp at 5 min: mouse; for concentration at 5 min: plasma, read-out: Mean blood (drug concentration in plasma); for Kp at 5 min: brain/plasma, read-out: Mean Ratio (brain/plasma)
ABL1 (64-515) = ABL1 (64-515) (Homo sapiens (Human), UniProt P00519); experiment: Radio ABL1 (64-515) assay (radiometric filter-binding); format: biochemical
Chain of ABL1 (64-515) (P00519 64-515): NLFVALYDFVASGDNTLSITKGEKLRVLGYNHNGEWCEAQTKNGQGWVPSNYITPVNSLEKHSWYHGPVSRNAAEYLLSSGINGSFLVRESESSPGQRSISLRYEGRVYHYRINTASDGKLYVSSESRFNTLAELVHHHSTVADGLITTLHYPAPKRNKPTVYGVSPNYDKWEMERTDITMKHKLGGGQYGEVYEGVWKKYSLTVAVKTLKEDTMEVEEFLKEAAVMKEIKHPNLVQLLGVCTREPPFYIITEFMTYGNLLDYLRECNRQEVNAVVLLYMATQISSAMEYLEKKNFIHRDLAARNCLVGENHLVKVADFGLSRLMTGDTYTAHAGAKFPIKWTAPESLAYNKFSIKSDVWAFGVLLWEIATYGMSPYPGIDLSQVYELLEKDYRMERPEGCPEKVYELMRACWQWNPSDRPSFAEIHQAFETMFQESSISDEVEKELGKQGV

IC50 (ABL1 (64-515)) [nM] | Structure (SMILES) | also measured
6.5 | O=C(Nc1ccc(OC(F)(F)F)cc1)c1cccc(-c2cnc(OCCO)nc2)c1 [Example 2, 3-(2-(2-Hydroxyethoxy)pyrimidin-5-yl)-N-(4-(trifluoromethoxy)phenyl)benzamide] | 
7 | Nc1cnc(-c2cccc(C(=O)Nc3ccc(OC(F)(F)F)cc3)c2)cn1 [Example 4, 3-(5-Aminopyrazin-2-yl)-N-(4-(trifluoromethoxy)phenyl)benzamide] | 
3.1 | O=C(Nc1ccc(OC(F)(F)F)cc1)c1cccc(-c2cnccn2)c1 [Example 5, 3-(Pyrazin-2-yl)-N-(4-(trifluoromethoxy)phenyl)benzamide] | 
1.9 | O=C(Nc1ccc(OC(F)(F)F)cc1)c1cccc(-n2ccnc2)c1 [Example 8, 3-(1H-Imidazol-1-yl)-N-(4-(trifluoromethoxy)phenyl)benzamide] | 
35 | Cn1cc(-c2cc(C(=O)Nc3ccc(OC(F)(F)F)cc3)ccc2F)cn1 [Example 22, 4-fluoro-3-(1-methyl-1H-pyrazol-4-yl)-N-(4-(trifluoromethoxy)phenyl)benzamide] | 
< 3 | O=C(Nc1ccc(OC(F)(F)F)cc1)c1ccc(Cl)c(-c2cncnc2)c1 [Example 24, 4-chloro-3-(pyrimidin-5-yl)-N-(4-(trifluoromethoxy)phenyl)benzamide] | 
8.7 | COc1ccc(C(=O)Nc2ccc(OC(F)(F)F)cc2)cc1-c1ccncc1 [Example 33, 4-methoxy-3-(pyridin-4-yl)-N-(4-(trifluoromethoxy)phenyl)benzamide] | 
9.9 | COc1ccc(C(=O)Nc2ccc(OC(F)(F)F)cc2)cc1-c1ccc2c(c1)OCO2 [Example 35, 3-(Benzo[d][1,3]dioxol-5-yl)-4-methoxy-N-(4-(trifluoromethoxy)phenyl)benzamide] | 
3.4 | COc1ccc(C(=O)Nc2ccc(OC(F)(F)F)cc2)cc1-c1ccc(C(C)=O)s1 [Example 36, 3-(5-Acetylthiophen-2-yl)-4-methoxy-N-(4-(trifluoromethoxy)phenyl)benzamide] | 
< 3 | O=C(Nc1ccc(OC(F)(F)F)cc1)c1ccc(OCCO)c(-c2cncnc2)c1 [Example 38, 4-(2-Hydroxyethoxy)-3-(pyrimidin-5-yl)-N-(4-(trifluoromethoxy)phenyl)benzamide] | 
< 3 | CC(C)CN1CCN(CCOc2ccc(C(=O)Nc3ccc(OC(F)(F)F)cc3)cc2-c2cncnc2)CC1 [Example 39, 4-(2-(4-Isobutylpiperazin-1-yl)ethoxy)-3-(pyrimidin-5-yl)-N-(4-(trifluoromethoxy)phenyl)benzamide] | 
77 | O=C(Nc1ccc(OC(F)(F)F)cc1)c1cncc(-c2cccnc2O)c1 [Example 63, 2′-Hydroxy-N-(4-(trifluoromethoxy)phenyl)-[3,3′-bipyridine]-5-carboxamide] | 
13 | O=C(Nc1ccc(OC(F)(F)F)cc1)c1ccnc(-c2cncnc2)c1 [Example 70, 2-(Pyrimidin-5-yl)-N-(4-(trifluoromethoxy)phenyl)isonicotinamide] | 
650 | O=C(Nc1ccc(OC(F)(F)F)cc1)c1cc(-c2cncnc2)ccn1 [Example 72, 4-(pyrimidin-5-yl)-N-(4-(trifluoromethoxy)phenyl)picolinamide] | 

Continued, compound first:

Structure (SMILES) | IC50 (ABL1 (64-515)) [nM] | also measured
O=C(Nc1ccc(OC(F)(F)F)cc1)c1cccc(-c2cncnc2)c1 [Example 1, 3-(Pyrimidin-5-yl)-N-(4-(trifluoromethoxy)phenyl)benzamide] |  | IC50 (Ba/F3-BCR-ABL1-WT cells; 48 h): 150 nM; Mean brain (drug concentration in brain) [1]: 4946 pmol/g; concentration at 5 min [1]: 1160 nM
N#Cc1cncc(-c2cccc(C(=O)Nc3ccc(OC(F)(F)F)cc3)c2)c1 [Example 3, 3-(5-Cyanopyridin-3-yl)-N-(4-(trifluoromethoxy)phenyl)benzamide] | 3.9 | 
COC(=O)c1cc(-c2cccc(C(=O)Nc3ccc(OC(F)(F)F)cc3)c2)cs1 [Example 6, Methyl 4-(3-((4-(trifluoromethoxy)phenyl)carbamoyl)phenyl)thiophene-2-carboxylate] | 3.3 | IC50 (Ba/F3-BCR-ABL1-WT cells; 48 hours): 1060 nM
O=C(Nc1ccc(OC(F)(F)F)cc1)c1cccc(-c2ccc(CN3CCCC3)s2)c1 [Example 7, 3-(5-(Pyrrolidin-1-ylmethyl)thiophen-2-yl)-N-(4-(trifluoromethoxy)phenyl)benzamide] | < 3 | 
O=C(Nc1ccc(OC(F)(F)F)c(F)c1)c1cccc(-c2cncnc2)c1 [Example 9, N-(3-Fluoro-4-(trifluoromethoxy)phenyl)-3-(pyrimidin-5-yl)benzamide] | 22 | IC50 (Ba/F3-BCR-ABL1-WT cells; 48 hours): 89 nM
O=C(Nc1ccc(CC(F)(F)F)cc1)c1cccc(-c2cncnc2)c1 [Example 12, 3-(Pyrimidin-5-yl)-N-(4-(2,2,2-trifluoroethyl)phenyl)benzamide] |  | IC50 (Ba/F3-BCR-ABL1-WT cells; 48 hours): 148 nM
COc1ncc(-c2cc(C(=O)Nc3ccc(OC(F)(F)F)cc3)ccc2C)cn1 [Example 13, 3-(2-Methoxypyrimidin-5-yl)-4-methyl-N-(4-(trifluoromethoxy)phenyl)benzamide] | 3 | IC50 (Ba/F3-BCR-ABL1-WT cells; 48 hours): 4.9 nM; Mean brain (drug concentration in brain) [1]: 4011 pmol/g; Kp at 5 min [1]: 1.29; concentration at 5 min [1]: 3090 nM
Cc1ccc(C(=O)Nc2ccc(OC(F)(F)F)cc2)cc1-c1cccnc1 [Example 15, 4-Methyl-3-(pyridin-3-yl)-N-(4-(trifluoromethoxy)phenyl)benzamide] | 4 | IC50 (Ba/F3-BCR-ABL1-WT cells; 48 hours): 11 nM; Mean brain (drug concentration in brain) [1]: 6847 pmol/g; Kp at 5 min [1]: 3.2; concentration at 5 min [1]: 2140 nM
O=C(Nc1ccc(OC(F)(F)F)cc1)c1ccc(F)c(-c2cncnc2)c1 [Example 18, 4-fluoro-3-(pyrimidin-5-yl)-N-(4-(trifluoromethoxy)phenyl)benzamide] | 3.2 | 
COc1ncc(-c2cc(C(=O)Nc3ccc(OC(F)(F)F)cc3)ccc2F)cn1 [Example 19, 4-fluoro-3-(2-methoxypyrimidin-5-yl)-N-(4-(trifluoromethoxy)phenyl)benzamide] | 12 | 
O=C(Nc1ccc(OC(F)(F)F)cc1)c1ccc(F)c(-c2cccnc2)c1 [Example 20, 4-fluoro-3-(pyridin-3-yl)-N-(4-(trifluoromethoxy)phenyl)benzamide] | 13 | 
O=C(Nc1ccc(OC(F)(F)F)cc1)c1ccc(F)c(-c2cc[nH]n2)c1 [Example 23, 4-fluoro-3-(1H-pyrazol-3-yl)-N-(4-(trifluoromethoxy)phenyl)benzamide] | 31 | IC50 (Ba/F3-BCR-ABL1-WT cells; 48 hours): 693 nM
COc1ncc(-c2cc(C(=O)Nc3ccc(OC(F)(F)F)cc3)ccc2Cl)cn1 [Example 25, 4-chloro-3-(2-methoxypyrimidin-5-yl)-N-(4-(trifluoromethoxy)phenyl)benzamide] | 8.1 | 
O=C(Nc1ccc(OC(F)(F)F)cc1)c1ccc(Cl)c(-c2cccnc2)c1 [Example 26, 4-chloro-3-(pyridin-3-yl)-N-(4-(trifluoromethoxy)phenyl)benzamide] | 13 | 
O=C(Nc1ccc(OC(F)(F)F)cc1)c1ccc(Cl)c(-c2ccncc2)c1 [Example 27, 4-chloro-3-(pyridin-4-yl)-N-(4-(trifluoromethoxy)phenyl)benzamide] | 31 | 
COc1ccc(C(=O)Nc2ccc(OC(F)(F)F)cc2)cc1-c1cccnc1 [Example 31, 4-methoxy-3-(pyridin-3-yl)-N-(4-(trifluoromethoxy)phenyl)benzamide] | 3.2 | 
COc1ccc(C(=O)Nc2ccc(OC(F)(F)F)cc2)cc1-c1ccc(F)nc1 [Example 32, 3-(6-fluoropyridin-3-yl)-4-methoxy-N-(4-(trifluoromethoxy)phenyl)benzamide] | 3.4 | 
COc1ccc(C(=O)Nc2ccc(OC(F)(F)F)cc2)cc1-c1cc[nH]n1 [Example 34, 4-methoxy-3-(1H-pyrazol-3-yl)-N-(4-(trifluoromethoxy)phenyl)benzamide] | 13 | IC50 (Ba/F3-BCR-ABL1-WT cells; 48 hours): 77 nM
O=C(Nc1ccc(OC(F)(F)F)cc1)c1ccc(O)c(-c2cncnc2)c1 [Example 41, 4-Hydroxy-3-(pyrimidin-5-yl)-N-(4-(trifluoromethoxy)phenyl)benzamide] | 13 | 
O=C(Nc1ccc(OC(F)(F)F)cc1)c1cncc(-c2cncnc2)c1 [Example 42, 5-(Pyrimidin-5-yl)-N-(4-(trifluoromethoxy)phenyl)nicotinamide] |  | IC50 (Ba/F3-BCR-ABL1-WT cells; 48 h): 29 nM
COc1ncc(C(=O)Nc2ccc(OC(F)(F)F)cc2)cc1-c1cncnc1 [Example 49, 6-Methoxy-5-(pyrimidin-5-yl)-N-(4-(trifluoromethoxy)phenyl)nicotinamide] | < 3 | IC50 (Ba/F3-BCR-ABL1-WT cells; 48 hours): 47 nM
O=C(Nc1ccc(OC(F)(F)F)cc1)c1cnc(OCCNCCO)c(-c2cncnc2)c1 [Example 50, 6-(2-((2-Hydroxyethyl)amino)ethoxy)-5-(pyrimidin-5-yl)-N-(4-(trifluoromethoxy)phenyl)nicotinamide] | 4.2 | 
O=C(Nc1ccc(OC(F)(F)F)cc1)c1cccc(-c2cncnc2)c1F [Example 60, 2-Fluoro-3-(pyrimidin-5-yl)-N-(4-(trifluoromethoxy)phenyl)benzamide] | 36 | 
COc1ncccc1-c1cncc(C(=O)Nc2ccc(OC(F)(F)F)cc2)c1 [Example 62, 2′-Methoxy-N-(4-(trifluoromethoxy)phenyl)-[3,3′-bipyridine]-5-carboxamide] | 69 | 
O=C(Nc1ccc(OC(F)(F)F)cc1)c1cnc(Cl)c(-c2ncc[nH]2)c1 [Example 65, 6-Chloro-5-(1H-imidazol-2-yl)-N-(4-(trifluoromethoxy)phenyl)nicotinamide] | 5 | IC50 (Ba/F3-BCR-ABL1-WT cells; 48 hours): 184 nM
COc1ncc(-c2cc(C(=O)Nc3ccc(OC(F)(F)F)cc3)ccn2)cn1 [Example 69, 2-(2-Methoxypyrimidin-5-yl)-N-(4-(trifluoromethoxy)phenyl)isonicotinamide] | < 3 | 
O=C(Nc1ccc(OC(F)(F)F)cc1)c1cncc(-c2cncnc2)n1 [Example 71, 6-(pyrimidin-5-yl)-N-(4-(trifluoromethoxy)phenyl)pyrazine-2-carboxamide] | 660 | 
